Data from patent US20080319042A1, “Compositions and methods for treatment of liver disease” (priority 2007, published 2008).
Where “and” joins values, the source holds several entries; their conditions need not be identical. Equal entries are not always repeated.

Key:
HIV = assay: anti-HIV HOG.R5 assay; assay type: cell-based; details: 20 mcg/ml
Ebola = assay type: cell-based; details: 50 mg·mL; FIG. 4
HBeAg = assay: Anti-HBSAg Assay (Procedure B), HBeAg; assay type: cell-based, hepatitis B virus; design: HBeAg Ave: unit not given here
SARS = assay type: cell-based; details: 50 mg·mL; FIG. 4
HBsAg = assay: Anti-HBSAg Assay (Procedure B), HBsAg; assay type: cell-based, hepatitis B virus; design: HBsAg Ave.: unit not given here
Protocol: The HBV-producing human hepatoblastoma cell line, Hep G2 2.2.15 is maintained in DMEM supplemented with 10% fetal bovine serum (FBS), 2 mM glutamine, 100 units/ml penicillin, 100 μg/ml streptomycin at 37° C. under 5% CO2 in air.
Samples were dissolved in DMSO at the concentration of 20 mg/mL, then further diluted with DMEM medium to the appropriate concentration.
Hep G2 2.2.15 cells (120 μl) were seeded onto 96-well plates at a concentration of 2×10^5 cells/mL. The cells incubated for 72 h in the medium without G418, after which the test samples (120 μl) were added. Five 3-fold serial dilutions of samples were tested. PBS and 3TC (lamivudine) were included as the negative and positive controls, respectively. The treated cells were incubated at 37° C. for 9 days; with the medium with sample being changed each 3 days, after which the culture supernatant was removed for analysis of both the hepatitis B surface antigen (HBsAg) production and hepatitis B DNA expression.
The HBsAg released into the culture medium in the presence or absence of test material was assayed using the kit manufactured by Shanghai Siic Kehua Biotech Co., Ltd (Shanghai, China). This enzyme immunoassay is based on the capture of HBsAg on monoclonal antibody-coated plates. Four- and twelve-fold dilutions of all culture supernatants collected were assayed in triplicate wells of the kit plate. The percentage inhibition of HBsAg secretion in the presence of the compound was calculated against the negative control (PBS). The IC50 values, the dose that inhibited viruses by 50%, were calculated using non-linear regression analysis (percent survival versus concentration).

HCV JFH1 = HCV JFH1 infectivity assay (JFH1 Foci Reduction Assay); assay type: cell-based, hepatitis C virus; details: virus preincubated with compound; Huh 7 cells; 48 hr post infection; RD8, RD16, RD17, RD18 as glucosidase hydrolysis products
influenza = influenza virus entry assay; assay type: cell-based; design: dose or concentration left out as unconfirmed; details: FIG. 4
[1] = system: hepatitis B surface antigen (HBsAg) production; assay: Anti-HBSAg Assay (Procedure A); assay type: cell-based, hepatitis B virus; details: 50 μg/ml
Protocol: (§1) The HBV-producing human hepatoblastoma cell line, Hep G2.2.15 was maintained in DMEM supplemented with 10% fetal bovine serum (FBS), 2 mM glutamine, 100 units/ml penicillin, 100 μg/ml streptomycin and 380 μg/ml gentamicin sulfate (G418) at 37° C. under 5% CO2 in air. The Hep G2 parental cells were grown under identical conditions in MEM with Earle's salts without G418.
(§2) Hep G2.2.15 cells (190 μl) were seeded onto microtiter plates at a concentration of 20×10^4 cells/ml. The cells incubated overnight in medium without G418 after which the compound compositions (10 μl) were added. Five 2-fold serial dilutions of extracts or fractions were tested starting at 200 μg/ml final culture concentration. PBS and 3TC (lamivudine) were included as the negative and positive controls, respectively. The treated cells were incubated at 37° C. for 4 days, after which the hepatitis B surface antigen (HBsAg) production in culture supernatants was assayed. The HBsAg released into the culture medium in the presence or absence of test samples was assayed using the BIO-RAD Genetic Systems HBsAg EIA 3.0 kit (Bio-Rad, Redmond, Wash.). This enzyme immunoassay is based on the capture of HBsAg on monoclonal antibody-coated plates. Four- and twelve-fold dilutions of all culture supernatants collected were assayed in triplicate wells of the EIA plate. The percentage inhibition of HBsAg secretion in the presence of the plant samples was calculated against the negative control (PBS).

VSVG/HIV pseudovirions = assay: VSVG/HIV pseudoviral entry into HUH7 cells; assay type: cell-based, vesicular stomtatis virus; details: 100 μg/mL, FIG. 3
HBV DNA = assay: Anti-HBV DNA Assay; assay type: cell-based, hepatitis B virus; details: for HBV DNA copies/ml: replicates, listed as HP-S2
HCV/HIV pseudovirions = assay: microbe, parasite or virus in culture; assay type: cell-based, hepatitis C virus; details: for inhibition of HCV/HIV entry: 100 μg/mL
Marburg = assay type: cell-based; design: dose or concentration left out as unconfirmed; details: FIG. 4
Hep G2.2.15 cells = assay: % Cell Viability in Anti-HBSAg Assay (Procedure A); assay type: cell-based, human; details: 50 μg/ml
Protocol: as §1, §2

With COC(=O)C1=COC(O)C2C1C(O)C(O)C2(C)O (mixture of isomers) [lamiridosin] the “activity against HIV (HOG.R5 assay)” value (HIV) was “inactive”, the “activity against Ebola virus entry” value (Ebola) was “inactive” and the “HBeAg Ave” value (HBeAg; 9.375 μg/mL) was 1.327. The “HBeAg Inhibition %” value (HBeAg; 9.375 μg/mL) was 2.7%, the “HBeAg OD1” value (HBeAg; 9.375 μg/mL) was 1.455 and the “HBeAg OD2” value (HBeAg; 9.375 μg/mL) was 1.416. The “HBeAg OD3” value (HBeAg; 9.375 μg/mL) was 1.109, the “HBeAg Ave” value (HBeAg; 18.75 μg/mL) was 1.244 and the “HBeAg Inhibition %” value (HBeAg; 18.75 μg/mL) was 8.5%. For the same compound, the “HBeAg OD1” value (HBeAg; 18.75 μg/mL) was 1.151, the “HBeAg OD2” value (HBeAg; 18.75 μg/mL) was 1.171 and the “HBeAg OD3” value (HBeAg; 18.75 μg/mL) was 1.410. The “HBeAg Ave” value (HBeAg; 37.5 μg/mL) was 1.195, the “HBeAg Inhibition %” value (HBeAg; 37.5 μg/mL) was 12.1% and the “HBeAg OD1” value (HBeAg; 37.5 μg/mL) was 1.073. For the same compound, the “HBeAg OD2” value (HBeAg; 37.5 μg/mL) was 1.275, the “HBeAg OD3” value (HBeAg; 37.5 μg/mL) was 1.238 and the “activity against SARS virus entry” value (SARS) was “inactive”. For the same compound, the “HBsAg Ave.” value (HBsAg; 9.375 μg/mL) was 1.152, the “HBsAg Inhibition %” value (HBsAg; 9.375 μg/mL) was 0% and the “HBsAg OD1” value (HBsAg; 9.375 μg/mL) was 1.080. For the same compound, the “HBsAg OD2” value (HBsAg; 9.375 μg/mL) was 1.220, the “HBsAg OD3” value (HBsAg; 9.375 μg/mL) was 1.157 and the “HBsAg Ave.” value (HBsAg; 18.75 μg/mL) was 1.140. For the same compound, the “HBsAg Inhibition %” value (HBsAg; 18.75 μg/mL) was 0%, the “HBsAg OD1” value (HBsAg; 18.75 μg/mL) was 1.208 and the “HBsAg OD2” value (HBsAg; 18.75 μg/mL) was 1.105. The “HBsAg OD3” value (HBsAg; 18.75 μg/mL) was 1.107, the “HBsAg Ave.” value (HBsAg; 37.5 μg/mL) was 0.765 and the “HBsAg Inhibition %” value (HBsAg; 37.5 μg/mL) was 29.4%. The “HBsAg OD1” value (HBsAg; 37.5 μg/mL) was 0.797, the “HBsAg OD2” value (HBsAg; 37.5 μg/mL) was 0.744 and the “HBsAg OD3” value (HBsAg; 37.5 μg/mL) was 0.755. The “anti-HBSAg assay activity (in words)” value (HBsAg; 37.5 μg/ml, Table 2) was “inactive”, the “Estimated IC50 (inhibition of HCV JFH1 infectivity)” value (HCV JFH1) was 20 µg/mL and the “activity against influenza virus entry” value (influenza) was “inactive”. For the same compound, the “% Control HBSAg” value [1] was 100%, the “% Inhibition” value [1] was 0% and the “anti-HBSAg assay activity (in words)” value ([1]; Table 1) was “inactive”. The “VSVG/HIV pseudoviral entry blocking” value (VSVG/HIV pseudovirions) was “does not block”, the “HBV DNA Average” value (HBV DNA; 9.37 μg/ml) was 9.81 × 10^5 copies/ml and the “HBV DNA Inhibit” value (HBV DNA; 9.37 μg/ml) was 0.00%. The “HBV DNA copies/ml” value (HBV DNA; 9.37 μg/ml) was 1.12E+6 copies/ml and 1.01E+06 copies/ml and 1.22E+06 copies/ml, the “HBV DNA Average” value (HBV DNA; 18.75 μg/ml) was 8.90 × 10^5 copies/ml and the “HBV DNA Inhibit” value (HBV DNA; 18.75 μg/ml) was 23.90%. For the same compound, the “HBV DNA copies/ml” value (HBV DNA; 18.75 μg/ml) was 8.22E+05 copies/ml and 8.73E+05 copies/ml and 9.76E+05 copies/ml, the “HBV DNA Average” value (HBV DNA; 37.5 μg/ml) was 6.49 × 10^5 copies/ml and the “HBV DNA Inhibit” value (HBV DNA; 37.5 μg/ml) was 44.5%. The “HBV DNA copies/ml” value (HBV DNA; 37.5 μg/ml) was 5.06E+05 copies/ml and 8.57E+05 copies/ml and 5.85E+05 copies/ml, the “Exp2 (% Inhib)” value (HCV/HIV pseudovirions; 1 ug/mL) was 56.6% and the “Trial 1 (% Inhib)” value (HCV/HIV pseudovirions; 1 ug/mL) was 70.1%. For the same compound, the “Exp2 (% Inhib)” value (HCV/HIV pseudovirions; 5 ug/mL) was 68.4%, the “Trial 1 (% Inhib)” value (HCV/HIV pseudovirions; 5 ug/mL) was 81.2% and the “Exp2 (% Inhib)” value (HCV/HIV pseudovirions; 10 ug/mL) was 81.8%. The “Trial 1 (% Inhib)” value (HCV/HIV pseudovirions; 10 ug/mL) was 86.8%, the “Exp2 (% Inhib)” value (HCV/HIV pseudovirions; 50 ug/mL) was 96.7% and the “Trial 1 (% Inhib)” value (HCV/HIV pseudovirions; 50 ug/mL) was 96.1%. The “Exp2 (% Inhib)” value (HCV/HIV pseudovirions; 100 ug/mL) was 99.5%, the “Trial 1 (% Inhib)” value (HCV/HIV pseudovirions; 100 ug/mL) was 99.5% and the “inhibition of HCV/HIV entry” value (HCV/HIV pseudovirions; FIG. 1) was “approximately 80%”. The “inhibition of HCV/HIV entry” value (HCV/HIV pseudovirions; FIG. 1, listed as Lamiridosin) was “ca. 85%”, the “anti-hepatitis C virus activity (in words)” value (HCV/HIV pseudovirions; FIG. 1) was “did block HCV viral entry” and the “IC50 in the anti-HCV assay (HCV viral entry)” value (HCV/HIV pseudovirions; FIG. 2) was 0.6 µg/mL. For the same compound, the IC50 (HCV/HIV pseudovirions; FIG. 2, read-out: IC50 in the anti-HCV assay (HCV viral entry)) was 2310 nM, the “Imax in the anti-HCV assay” value (HCV/HIV pseudovirions; FIG. 2 fit) was 93.9±3.5% and the “activity against Marburg virus entry” value (Marburg) was “inactive”. The “% Cell Viability” value (Hep G2.2.15 cells) was 100%.
